Like-named read-outs stand apart in the source and are kept apart here.
How the values were obtained:
[1] = target: T1, human DGKα (Homo sapiens, UniProt P23743); test: DGKα LIPGLO assay (extruded liposome substrate), in vitro DGK inhibition; format: biochemical; settings: liposome (LIPGLO) assay; read-out: DGKa LIPGLO IC50
T1 construct: TVMV protease cleavage site (C); Hexa-His (C); made in house; host or cells: Sf9 insect cells (baculovirus, Bac-to-Bac)

[2] = target: T2, human DGKζ (Homo sapiens, UniProt Q13574); test: DGKζ LIPGLO assay (extruded liposome substrate), in vitro DGK inhibition; format: biochemical; settings: liposome (LIPGLO) assay; read-out: DGKz LIPGLO IC50
T2 construct: TVMV protease cleavage site (C); Hexa-His (C); made in house; host or cells: Sf9 insect cells (baculovirus, Bac-to-Bac)

[3] = system: naïve human CD8 T cells; test: Human CD8 T cells IFN-γ assay; format: cell-based; settings: read-out: HuCD8 INFG Normalized EC50;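 also: Naïve human CD8 T cells stimulated with plate-bound anti-CD3 and soluble anti-CD28, IFN-γ in supernatant quantified by AlphaLISA and converted to pg/mL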
[4] = system: Human venous whole blood; test: Human whole blood IFN-γ assay; format: cell-based;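 also: blood from healthy donors exposed to compound for 1 h before stimulation with anti-CD3 and anti-CD28 at 1 µg/mL each, IFN-γ quantified in supernatant by AlphaLISA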
Experimental: Human Whole Blood IFN-γ Assay
Human venous whole blood (22.5 μL per well), obtained from healthy donors, was pre-treated with compounds for one hour at 37° C. in a humidified 95% air/5% CO2 incubator. The blood was stimulated with 2.5 μL anti-human CD3 and anti-CD28 mAb at a final concentration of 1 μg/mL each for 24 hours at 37° C. IFN-γ in the supernatants was measured using AlphLISA kit (Cat # AL217).

[5] = normalized to 3 μM reference compound with anti-CD3 plus anti-CD28 as 100% activation
[6] = human whole blood, normalized to 3 μM reference compound with anti-CD3 plus anti-CD28 as 100% activation, read-out: INFg Whole Blood Normalized Agonist EC50
[7] = Homo sapiens, T-cell, 20 h, normalized to 3 μM reference compound with anti-CD3 plus anti-CD28 as 100% activation
[8] = Homo sapiens, 24 h, human whole blood, normalized to 3 μM reference compound with anti-CD3 plus anti-CD28 as 100% activation, read-out: INFg Whole Blood Normalized Agonist EC50
[9] = Homo sapiens, human whole blood, normalized to 3 μM reference compound with anti-CD3 plus anti-CD28 as 100% activation, read-out: INFg Whole Blood Normalized Agonist EC50

T1 sequence (P23743 with tags, fused parts or gaps): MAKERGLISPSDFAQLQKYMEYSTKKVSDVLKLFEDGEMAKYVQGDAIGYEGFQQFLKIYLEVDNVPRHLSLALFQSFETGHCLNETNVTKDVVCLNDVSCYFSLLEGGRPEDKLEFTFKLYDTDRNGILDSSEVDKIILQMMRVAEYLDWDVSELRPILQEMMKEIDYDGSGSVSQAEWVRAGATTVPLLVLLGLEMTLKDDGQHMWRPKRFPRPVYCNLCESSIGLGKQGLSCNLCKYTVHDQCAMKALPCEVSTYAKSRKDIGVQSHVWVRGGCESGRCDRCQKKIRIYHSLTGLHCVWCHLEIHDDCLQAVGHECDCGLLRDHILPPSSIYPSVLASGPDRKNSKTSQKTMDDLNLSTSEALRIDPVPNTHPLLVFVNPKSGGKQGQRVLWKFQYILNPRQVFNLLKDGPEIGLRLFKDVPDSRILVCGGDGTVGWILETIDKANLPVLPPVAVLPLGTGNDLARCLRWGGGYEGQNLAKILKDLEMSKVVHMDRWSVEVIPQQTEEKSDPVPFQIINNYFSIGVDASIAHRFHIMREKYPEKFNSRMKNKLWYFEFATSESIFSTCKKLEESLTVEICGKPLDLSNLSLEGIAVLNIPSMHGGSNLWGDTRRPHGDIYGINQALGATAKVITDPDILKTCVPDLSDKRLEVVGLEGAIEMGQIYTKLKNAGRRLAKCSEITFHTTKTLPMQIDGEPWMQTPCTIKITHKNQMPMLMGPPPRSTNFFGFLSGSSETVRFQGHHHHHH
T2 sequence (Q13574 with tags, fused parts or gaps isoform Q13574-4): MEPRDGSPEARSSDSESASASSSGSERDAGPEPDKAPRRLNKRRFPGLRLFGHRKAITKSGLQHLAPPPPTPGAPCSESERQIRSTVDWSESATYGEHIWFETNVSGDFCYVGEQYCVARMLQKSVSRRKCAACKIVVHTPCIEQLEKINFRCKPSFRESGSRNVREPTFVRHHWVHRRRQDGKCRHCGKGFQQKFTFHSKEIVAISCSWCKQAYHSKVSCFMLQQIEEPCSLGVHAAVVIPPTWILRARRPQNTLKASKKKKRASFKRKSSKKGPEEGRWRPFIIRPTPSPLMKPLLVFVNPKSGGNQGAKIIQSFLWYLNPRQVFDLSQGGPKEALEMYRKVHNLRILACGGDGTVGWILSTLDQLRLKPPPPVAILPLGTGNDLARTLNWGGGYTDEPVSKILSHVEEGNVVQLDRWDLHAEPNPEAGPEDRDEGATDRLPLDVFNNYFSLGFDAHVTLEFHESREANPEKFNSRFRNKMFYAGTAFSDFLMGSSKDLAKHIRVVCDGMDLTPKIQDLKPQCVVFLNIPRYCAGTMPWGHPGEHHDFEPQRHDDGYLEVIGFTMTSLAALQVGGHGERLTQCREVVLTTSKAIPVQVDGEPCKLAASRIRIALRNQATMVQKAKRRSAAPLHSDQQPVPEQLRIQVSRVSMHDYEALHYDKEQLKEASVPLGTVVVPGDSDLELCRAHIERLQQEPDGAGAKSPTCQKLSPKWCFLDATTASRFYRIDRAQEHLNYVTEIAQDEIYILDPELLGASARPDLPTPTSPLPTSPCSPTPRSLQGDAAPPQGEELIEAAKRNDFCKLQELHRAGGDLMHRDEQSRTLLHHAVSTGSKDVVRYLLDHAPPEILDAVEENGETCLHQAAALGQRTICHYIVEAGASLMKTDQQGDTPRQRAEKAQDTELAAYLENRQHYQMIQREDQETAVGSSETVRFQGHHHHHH

Cc1cccc(C(c2ccc(F)cc2)N2C[C@H](C)N(c3cc(=O)n(C)c4ccc(C#N)nc34)C[C@H]2C)n1 (single isomer, unassigned) [Example 203]
IC50 [1]: 190 nM | IC50 [2]: 29 nM | EC50 [3, 5]: 32 nM | EC50 [4, 6]: 290 nM

C[C@@H]1CN(c2cc(=O)n(C)c3ccc(C#N)nc23)[C@@H](C)CN1Cc1ccc(F)cc1F [Example 277, 8-[(2S,5R)-4-[(2,4-difluorophenyl)methyl]-2,5-dimethylpiperazin-1-yl]-5-methyl-6-oxo-5,6-dihydro-1,5-naphthyridine-2-carbonitrile]
IC50 [1]: 250 nM | IC50 [2]: 1500 nM | EC50 [3, 7]: 66 nM | EC50 [4, 8]: 840 nM

Cc1ccc(C(c2ccc(Cl)cc2)N2C[C@H](C)N(c3cc(=O)n(C)c4ccc(C#N)nc34)C[C@H]2C)nc1 (single isomer, unassigned) [Example 213]
IC50 [1]: 360 nM | IC50 [2]: 790 nM | EC50 [3, 5]: 1100 nM | EC50 [4, 8]: 460 nM

CC[C@H]1CN(C(c2ccc(F)cc2)c2ncccc2F)[C@H](CC)CN1c1cc(=O)n(C)c2ccc(C#N)nc12 (single isomer, unassigned) [Example 1038]
IC50 [1]: 77 nM | IC50 [2]: 850 nM | EC50 [3, 5]: 21 nM | EC50 [4, 6]: 280 nM

Cc1ccc(C(c2ccc(Cl)cn2)N2C[C@H](C)N(c3cc(=O)n(C)c4ccc(C#N)nc34)C[C@H]2C)cc1 (single isomer, unassigned) [Example 200]
IC50 [1]: 61 nM | IC50 [2]: 200 nM | EC50 [3, 5]: 40 nM | EC50 [4, 6]: 540 nM

C[C@@H]1CN(c2cc(=O)n(C)c3ccc(C#N)nc23)[C@@H](C)CN1Cc1c(F)cc(Cl)cc1F [Example 268, 8-[(2S,5R)-4-[(4-chloro-2,6-difluorophenyl)methyl]-2,5-dimethylpiperazin-1-yl]-5-methyl-6-oxo-5,6-dihydro-1,5-naphthyridine-2-carbonitrile]
IC50 [1]: 230 nM | IC50 [2]: 1200 nM | EC50 [3, 7]: 54 nM | EC50 [4, 8]: 1700 nM

Cc1ccc(C(c2ccc(Cl)cc2)N2C[C@H](C)N(c3cc(=O)n(C)c4ccc(C#N)nc34)C[C@H]2C)nc1 (single isomer, unassigned) [Example 214]
IC50 [1]: 72 nM | IC50 [2]: 290 nM | EC50 [3, 5]: 120 nM | EC50 [4, 6]: 620 nM

C[C@@H]1CN(c2c(F)c(=O)n(C)c3ccc(C#N)nc23)[C@@H](C)CN1C(c1ccc(F)cc1)c1ccc(C#N)cc1 (stereo partly drawn) [Example 327, 8-((2S,5R)-4-((4-cyanophenyl)(4-fluorophenyl)methyl)-2,5-dimethylpiperazin-1-yl)-7-fluoro-5-methyl-6-oxo-5,6-dihydro-1,5-naphthyridine-2-carbonitrile]
IC50 [1]: 3200 nM | IC50 [2]: 4900 nM | EC50 [3, 5]: 1200 nM | EC50 [4, 8]: 700 nM

C[C@@H]1CN(c2cc(=O)n(C)c3ccc(C#N)nc23)[C@@H](C)CN1Cc1c(Cl)cccc1Cl [Example 263, 8-[(2S,5R)-4-[(2,6-dichlorophenyl)methyl]-2,5-dimethylpiperazin-1-yl]-5-methyl-6-oxo-5,6-dihydro-1,5-naphthyridine-2-carbonitrile]
IC50 [1]: 6500 nM | IC50 [2]: 1700 nM | EC50 [3, 7]: 610 nM | EC50 [4, 8]: 6300 nM

Cc1ccc(C(c2cccc(F)n2)N2C[C@H](C)N(c3cc(=O)n(C)c4ccc(C#N)nc34)C[C@H]2C)cc1 (stereo partly drawn) [Example 476, 8-((2S,5R)-4-((6-fluoropyridin-2-yl)(p-tolyl)methyl)-2,5-dimethylpiperazin-1-yl)-5-methyl-6-oxo-5,6-dihydro-1,5-naphthyridine-2-carbonitrile]
IC50 [1]: 940 nM | IC50 [2]: 300 nM | EC50 [3, 7]: 160 nM | EC50 [4, 8]: 630 nM

CC(c1ccc(C(F)(F)F)cc1F)N1C[C@H](C)N(c2cc(=O)n(C)c3ccc(C#N)nc23)C[C@H]1C (single isomer, unassigned) [Example 434]
IC50 [1]: 1800 nM | IC50 [2]: 700 nM | EC50 [3, 7]: 5.7 nM | EC50 [4, 8]: 600 nM

COC(=O)C1CN(c2c(C#N)c(=O)n(C)c3ccc(Br)nc23)CCN1C(c1ccc(F)cc1)c1ccc(F)cc1 (centres unmarked) [Example 49, Methyl 1-(bis(4-fluorophenyl)methyl)-4-(6-bromo-3-cyano-1-methyl-2-oxo-1,2-dihydro-1,5-naphthyridin-4-yl)piperazine-2-carboxylate]
IC50 [1]: 25000 nM | IC50 [2]: 8700 nM | EC50 [3, 7]: 490 nM | EC50 [4, 8]: 6300 nM

Cc1ccc(C(c2cccc(F)c2)N2C[C@H](C)N(c3cc(=O)n(C)c4ccc(C#N)nc34)C[C@H]2C)nc1 (single isomer, unassigned) [Example 216]
IC50 [1]: 180 nM | IC50 [2]: 210 nM | EC50 [3, 5]: 74 nM | EC50 [4, 6]: 130 nM

C[C@@H]1CN(c2cc(=O)n(C)c3ccc(C#N)nc23)[C@@H](C)CN1C(c1ccccc1)c1ccc(F)cc1F (stereo partly drawn) [Example 283, 8-[(2S,5R)-4-[(2,4-difluorophenyl)(phenyl)methyl]-2,5-dimethylpiperazin-1-yl]-5-methyl-6-oxo-5,6-dihydro-1,5-naphthyridine-2-carbonitrile]
IC50 [1]: 650 nM | IC50 [2]: 1100 nM | EC50 [3, 7]: 68 nM | EC50 [4, 8]: 890 nM

C[C@@H]1CN(c2cc(=O)n(C)c3ccc(C#N)nc23)[C@@H](C)CN1C(c1ccc(Cl)cc1)c1cccc2c1OCCO2 (stereo partly drawn) [Example 447, 8-((2S,5R)-4-((4-chlorophenyl)(2,3-dihydrobenzo[b][1,4]dioxin-5-yl)methyl)-2,5-dimethylpiperazin-1-yl)-5-methyl-6-oxo-5,6-dihydro-1,5-naphthyridine-2-carbonitrile]
IC50 [1]: 7700 nM | IC50 [2]: 290 nM | EC50 [3, 7]: 50 nM | EC50 [4, 8]: 600 nM

C[C@@H]1CN(c2c(C#N)c(=O)n(C)c3ccc(C#N)nc23)CCN1C(c1ccccc1)c1ccc(Cl)cc1 (single isomer, unassigned) [Example 886]
EC50 ([3]; Homo sapiens, T-cell, 20 h, naïve human CD8 T cells, anti-CD3 plus anti-CD28, 3 μM reference compound = 100% activation): 9.6 nM | EC50 ([4]; read-out: INFg Whole Blood Normalized Agonist EC50, human whole blood, anti-CD3 plus anti-CD28, 24 hours, 3 μM reference compound = 100% activation): 600 nM

CCC(c1ccc(F)cc1F)N1C[C@H](C)N(c2cc(=O)n(C)c3ccc(C#N)nc23)C[C@H]1C (mixture of isomers) [Example 337, 8-((2S,5R)-4-(1-(2,4-difluorophenyl)propyl)-2,5-dimethylpiperazin-1-yl)-5-methyl-6-oxo-5,6-dihydro-1,5-naphthyridine-2-carbonitrile]
EC50 [3, 7]: 48 nM | EC50 [4, 9]: 440 nM

CCc1cc(F)ccc1C(c1ccc(Cl)cc1)N1C[C@H](C)N(c2cc(=O)n(C)c3ccc(C#N)nc23)C[C@H]1C (single isomer, unassigned) [Example 225]
IC50 [2]: 570 nM | EC50 [3, 7]: 61 nM | EC50 [4, 6]: 7600 nM

C[C@@H]1CN(c2cc(=O)n(C)c3ccc(C#N)nc23)[C@@H](C)CN1C(c1ccc(F)cc1)c1ccccc1F (stereo partly drawn) [Example 284, 8-[(2S,5R)-4-[(2-fluorophenyl)(4-fluorophenyl)methyl]-2,5-dimethylpiperazin-1-yl]-5-methyl-6-oxo-5,6-dihydro-1,5-naphthyridine-2-carbonitrile]
EC50 [3, 7]: 36 nM | EC50 ([4]; Homo sapiens, 24 h, read-out: INFg Whole Blood Normalized Agonist EC50, human whole blood, normalized to 3 μM reference compound with anti-CD3 plus anti-CD28 as 100% activation): 780 nM

CCC(c1ccc(F)cc1F)N1C[C@H](C)N(c2cc(=O)n(C)c3ccc(C#N)nc23)C[C@H]1C (single isomer, unassigned) [Example 338]
EC50 [3, 7]: 20 nM | EC50 [4, 9]: 130 nM

Cn1c(=O)cc(N2CCN(C(c3ccc(F)cc3)c3ccc(F)cc3)C(C(=O)NC3CC3)C2)c2nc(C#N)ccc21 (single isomer, unassigned) [Example 48, 1-(bis(4-fluorophenyl)methyl)-4-(6-cyano-1-methyl-2-oxo-1,2-dihydro-1,5-naphthyridin-4-yl)-N-cyclopropylpiperazine-2-carboxamide]
IC50 [1]: 240000 nM | IC50 [2]: 20000 nM | EC50 [3, 5]: 3800 nM
